# Reference: patent US7238689B2, “Isoxazoline derivative and herbicide comprising the same as active ingredient” (Ihara Chemical Industry Co., Ltd., priority 2001, dated 2007)
# Key:
# Format in all cases: in vivo
# Set-up in all cases: scale not given here
# [1] = test system: Echinochloa oryzicola Vasing; assay: Herbicidal effect by paddy field soil treatment; conditions: wettable powder, active ingredient 1000 g/ha, examined at the 21st day from the treatment
# Experimental: (§1) A paddy field soil was filled in a plastic pot of 100 cm^2 and subjected to puddling. Then, seeds of Echinochloa oryzicola Vasing and Monochoria vaginalis (Murm. f.) Presl var. plantaginea (Roxb.) Solms-Laub. were sowed and water was filled in a depth of 3 cm. Next day, wettable powders produced in accordance with the Formulation 1 were diluted with water and dropped on the water surface. The application amount of each wettable powder was 1,000 g per 1 hectare in terms of the active ingredient. Then, breeding was made in a greenhouse, and the herbicidal effect of each wettable powder was examined at the 21st day from the treatment in accordance with the standard shown in Table 21.
# [2] = test system: Monochoria vaginalis (Murm. f.) Presl var. plantaginea (Roxb.) Solms-Laub.; assay: Herbicidal effect by paddy field soil treatment; conditions: wettable powder, active ingredient 1000 g/ha, examined at the 21st day from the treatment
# Experimental: as §1
# [3] = test system: Echinochloa crus-galli (L.) Beauv. var. crusgalli; assay: Herbicidal effect by upland field soil treatment; conditions: active ingredient 1000 g/ha, examined at 21st day from treatment
# Source text: (§2) An upland field soil was filled in a plastic pot of 80 cm^2. Seeds of Echinochloa crus-galli (L.) Beauv. var. crusgalli and Setaria viridis (L.) Beauv. were sowed, followed by covering with the same soil. […] Then, breeding was made in a greenhouse, and the herbicidal effect of each wettable powder was examined at the 21st day from the treatment in accordance with the standard shown in Table 21.
# [4] = test system: Setaria viridis (L.) Beauv.; assay: Herbicidal effect by upland field soil treatment; conditions: active ingredient 1000 g/ha, examined at 21st day from treatment
# Source text: as §2
SMILES,"Herbicidal effect index, Echinochloa oryzicola Vasing [1]","Herbicidal effect index, Monochoria vaginalis (Burm. F.) Presl var. plantaginea (Roxb.) Solms-Laub. [2]","herbicidal effect (index per standard of Table 21), Echinochloa curs-galli (L.) Beauv. Var. crus-galli [3]","herbicidal effect (index per standard of Table 21), Setaria viridis (L.) Beauv. [4]"
CCOC(=O)Cn1nc(Cl)c(CS(=O)(=O)C2=NOC(C)(C)C2)c1C(F)(F)F [3-0137],5,5,5,5
CC1(C)CC(S(=O)(=O)Cc2c(Cl)nn(CC(F)(F)F)c2C(F)(F)F)=NO1 [3-0117],5,5,5,5
CC1(C)CC(S(=O)(=O)Cc2c(Cl)nn(CS(C)(=O)=O)c2C(F)(F)F)=NO1 [3-0131],5,5,5,5
CCOCn1nc(Cl)c(CS(=O)(=O)C2=NOC(C)(C)C2)c1C(F)(F)F [3-0121],5,5,5,5
Cn1nc(C(F)(F)F)c(CS(=O)(=O)C2=NOC(C)(C)C2)c1Oc1ccccc1 [3-0060],5,5,5,5
CC1(C)CC(S(=O)(=O)Cc2c(Cl)nn(Cc3ccccc3)c2C(F)(F)F)=NO1 [3-0088],5,5,5,4
CC1(C)CC(S(=O)(=O)Cc2nc(-c3ccccc3)no2)=NO1 [9-0006],5,5,5,4
CC1(C)CC(S(=O)(=O)Cc2ccc[n+]([O-])c2)=NO1 [7-0004],5,5,5,4
CC1(C)CC(S(=O)(=O)Cc2c(C(F)(F)F)n[nH]c2Cl)=NO1 [3-0034],5,5,5,5
Cn1nc(C(F)(F)F)c(CS(=O)(=O)C2=NOC(C)(C)C2)c1OCc1ccccc1 [3-0059],5,5,5,5
CSCn1nc(C(F)(F)F)c(CS(=O)(=O)C2=NOC(C)(C)C2)c1Cl [3-0128],5,5,5,5
Cn1nc(Cl)c(CS(=O)(=O)C2=NOC(C)(C)C2)c1C(F)(F)F [3-0040],5,5,5,5
